Source: EP2623117A1, “Immunogenic nanomedicine composition and preparation and uses thereof” (Genetic Immunity Kft., priority 2009, dated 2010)

Experiments:
293T human cells = experiment: In vitro biological activity assay: transfection of 293T cells, HIV-1 p24 antigen ELISA of supernatant; assay type: cell-based; settings: N/P ratio of 3
Protocol: The in vitro biological activity test of the NanoComp is performed by transfection of 293T human cells. 50,000 cells are plated in 96 well plate 19 hours before transfection, using DMEM culture medium (DMEM, 1% FBS, 1% L-glutamine, 1% Penicillin-Streptomycin). 0.5µg pDNA/NanoComp is added to each well followed by 21 hours incubation at 37°C in 5% CO2 air condition. During the incubation period, the HIV-specific protein antigens encoded by the pDNA are expressed and secreted into the culture medium. After 21 hours, the supernatant of the cells are collected, and HIV-1 p24 antigen ELISA is performed to quantify p24 protein produced by the pDNA.

[1] = Side reaction of formulation solvent with PEIm (UV spectra after storage); assay type: physicochemical; settings: room temperature, 2 month
Protocol: • a) NanoComp formulations were prepared according to Example 1, using the same PEIm and pDNA at N/P ratio of 3, and different solvents: sterile water, physiological NaCl (0.9%), D(+)-Mannitol (10 mg/ml), Sorbitol (10 mg/ml), D(+)-Glucose (10 mg/ml), Mannose (10 mg/ml), Sucrose (10 mg/ml), Triethanolamine buffer (TEA) (pH 7.5), D(+)-Mannitol (10 mg/ml) in triethanolamine (TEA) buffer (pH 7.5), Sorbitol (10 mg/ml) in triethanolamine buffer (pH 7.5) and D(+)-Mannitol (10 mg/ml) and Glycerol (10 mg/ml) in triethanolamine buffer (pH 7.5). The biological activity is given procentual related to the biological activity of the formulation in sterile water. Results are shown in Fig. 7A. • b) PEIm solution, mixture of PEIm with Glucose (10%) and Mannitol (10%) respectively, NanoComp formulations with Glucose (10%) and Mannitol (10%) were prepared according to Example 1, the missing component in all mixtures were replaced with water, to ensure the same concentration of the components. The prepared solutions were stored at room temperature (approx. 25°C) for 2 month. UV spectra were recorded without dilution. […] The particle size of the formed complexes was measured using ZetaPALS, Brookehaven instrument freshly and after 6 days storage at room temperature.

## OC[C@@H](O)[C@@H](O)[C@H](O)[C@H](O)CO [mannitol, D(+)-Mannitol]
293T human cells
  effect of solvent on the biological activity of the NanoComp compared to sterile water: same improving effect on the biological activity
[1]
  side reaction of solvent with PEIm over time: without side reactions with PEIm
